The values below come from patent publication US8278290B2, “Tubulin polymerisation inhibitors” (Biononics Limited, priority 2005, dated 2012).

In one assay the test system is Tubulin. In words: Inhibition of tubulin polymerisation. Type of assay: biochemical. The following applies: tubulin concentration 10 μM; extent of assembly after 20 min incubation at 30° C.; read-out: Inhib. Tubulin polymerisation IC50.
The subject of another assay is MCF-7, cancer cell line. In words: MCF-7 growth inhibition (SRB or Sysmex cell counting). The following applies: SRB or CC assay. Type of assay: cell-based.
In assay [1] the test system is Human umbilical vein endothelial cells. In words: Proliferation Assay - activated endothelium (MTT). The following applies: HUVEC, range within which the IC50 value falls, 48 hrs culture, read-out: Inhib activated HUVECs IC50. Type of assay: cell-based. As for the experimental part: Proliferation Assay—activated endothelium: Human umbilical vein endothelial cells (CC-2519, Clonetics) were plated at 2500 cells/well in EGM2 (CC-3162, Clonetics) in a 96 well plate in triplicate. Cells were cultured overnight at 37° C. 5% CO2. Medium was subsequently replaced with fresh medium including the compound or negative control. Cells were cultured for a period of 48 hrs. An MTT assay was performed to measure changes in cell numbers. Briefly, 20 μl of MTT reagent was added to cells containing 100 μl of EGM2 and incubated at 37° C. for 2 hours. Absorbance was measured at 492 nm.

In the next assay the test system is MDA-MB-231 tumour. Kind of assay: MDA-MB-231 tumour growth in mice. Particulars: 35 mg/kg/d (35 mg/kg/d for 3 days then 17.5 mg/kg/d for 3 days then none); 5 mice per group; FIG. 1. Type of assay: in vivo. As for the experimental part: The effect of 35 mg/kg/d CA4-P, compound entry 8, compound entry 9, compound entry 10 and compound entry 23 (administered at 35 mg/kg/d for 3 days then 17.5 mg/kg/d for 3 days then none) on MDA-MB-231 tumour growth is summarised in FIG. 1.
The effect of CA4-P and test compounds and saline on MDA-MB-231 tumour growth. Each group consisted of 5 mice. The data represent the mean tumour volume; bars SEM.

Another assay has as its system MDA-MB-231. Kind of assay: MDA-MB-231 growth inhibition (footnote b). Type of assay: cell-based. Particulars: Homo sapiens; entries 59-60: cell line MDA-MB-231; range within which the IC50 value falls; read-out: cancer cell line IC50 (MDA-MB-231).
Where [2] appears, read: Homo sapiens, MCF7, concentration required to inhibit net cell growth by 50%.
Setting [3] is: concentration required to inhibit net cell growth by 50%.

Each structure is given as a SMILES string. Where only a bound is given, the exact number is not on record here.

Consider `COc1cc(C(=O)c2c(-c3nccs3)oc3c(O)c(OC)ccc23)cc(OC)c1OC` [Entry 44, 7-Hydroxy-2-(2-thiazolyl)-3-(3,4,5-trimethoxybenzoyl)-6-methoxy-benzo[b]furan], for which the 50% inhibitory concentration (IC50) – broadly, the point on the concentration scale where inhibition reaches its midpoint – with Tubulin is 2200 ± 400 nM; in the assay with MCF-7, cancer cell line (setting [2]), 0.37 nM; in the assay with MCF-7, cancer cell line (setting [3]), 0.32 nM; in assay [1], 0.1 to 1 nM.

Consider `COc1cc(C(=O)c2c(-c3cnn(C)c3)oc3c(N)c(OC)ccc23)cc(OC)c1OC` [Entry 21, 7-Amino-6-methoxy-2-(1-methyl-1H-pyrazol-4-yl)-3-(3,4,5-trimethoxybenzoyl)benzo[b]furan], for which the IC50 with Tubulin was 1500 ± 100 nM; in the assay with MCF-7, cancer cell line (setting [2]), < 1 nM; in the assay on MCF-7, cancer cell line (setting [3]), 1.2 nM; in assay [1], 1 to 10 nM.

`COc1cc(C(=O)c2c(-c3cnn(C)c3)oc3c(OP(=O)([O-])[O-])c(OC)ccc23)cc(OC)c1OC.[Na+].[Na+]` [Entry 23, 2-(4-N-methylpyrazolyl)-3-(3,4,5-trimethoxybenzoyl)-6-methoxy-7-O-disodiumphosphate-benzofuran]: in the assay with MDA-MB-231 tumour, the “effect on MDA-MB-231 tumour growth” value is reported as “effectively inhibited”.

`COc1ccc(/C=C\c2cc(OC)c(OC)c(OC)c2)cc1OP(=O)([O-])[O-].[Na+].[Na+]` [CA4-P, combretastatin A4 disodium phosphate, reference compound]: the “effect on MDA-MB-231 tumour growth” value in the assay on MDA-MB-231 tumour is “effectively inhibited”.

With `COc1ccc2c(C(=O)c3cc(OC)c(OC)c(OC)c3)c(-c3ccc(OC)nc3)oc2c1` [Entry 11, 2-(6-Methoxy-pyridin-3-yl)-3-(3,4,5-trimethoxybenzoyl)-6-methoxy-benzofuran], the half-inhibitory concentration (IC50) is < 4000 nM with Tubulin; 70 nM in the assay on MCF-7, cancer cell line (setting [2]); 72 nM in the assay on MCF-7, cancer cell line (setting [3]); 10 to 100 nM in assay [1].

Consider `COc1ccc2c(C(=O)c3cc(OC)c(OC)c(OC)c3)c(-c3cnn(C)c3)oc2c1` [Entry 12, 6-Methoxy-2-(1-methyl-1H-pyrazol-4-yl)-3-(3,4,5-trimethoxybenzoyl)benzo[b]furan], for which the half-maximal inhibitory concentration (IC50) in the assay with Tubulin was 1200 ± 40 nM; in the assay on MCF-7, cancer cell line (setting [2]) it was 3.9 nM; in the assay with MCF-7, cancer cell line (setting [3]), 4 nM; in assay [1], 1 to 10 nM.

As to `COc1cc(C(=O)c2c(-c3cncn3C)oc3c(O)c(OC)ccc23)cc(OC)c1OC` [Entry 59, 7-Hydroxy-6-methoxy-2-(3-methyl-3H-imidazol-4-yl)-3-(3,4,5-trimethoxybenzoyl)-benzo[b]furan], the IC50 (in assay [1]; in the assay with MDA-MB-231) was 1 to 10 nM each time.
